What is called IC50 is the concentration that inhibits the measured activity by half. High values mean weaker potency, low ones greater potency. The term MBC denotes the smallest concentration meeting the test's criterion for killing. High values mean weaker bactericidal potency, low ones greater bactericidal potency.

The values that follow come from patent US20260215432A1, “ANTIMICROBIAL CONJUGATED OLIGOELECTROLYTES AND METHODS THEREOF” (National University of Singapore, priority 2023, published 2026).

Test [1] concerns A549 (lung epithelial cells). Nature of the test: Cytotoxicity against mammalian cell line. The format is cell-based. As for the experimental part: The cytotoxicity of the TPP COEs was also tested against a mammalian cell line (A549).
Another test concerns A. baumanii (ATCC 17978). As to the kind of experiment: Minimum bactericidal concentration (MBC). The format is cell-based. The note with it: strain AB; unit printed in b207 only. As for the experimental part: (§1) To study the extent to which TPP-COEs can effectively kill bacteria, bacteria cells treated with DM6P at varying concentrations were plated onto Tryptic Soy Agar (TSA) and the minimum bactericidal concentration (MBC), where complete eradication of the inoculum occurred, was determined (Table 5). MBC values ranged from 2 μg mL^−1 towards MRSA to 8 μg mL^−1 towards PAO1 and stayed within a two to four-fold range of the MIC values for all strains tested.
(§2) Bacteria samples treated with DM6P at varying concentrations from a broth microdilution method in a 96-well plate according to the methods for determining the MIC. Colonies were plated on TSB agar plates with 20 μL inoculation and the plates incubated at 37° C. overnight. […] All measurements were performed in triplicate.

For test [2], the system named is E. coli. K12 (ATCC 10798). Nature of the test: Minimum bactericidal concentration (MBC). The format is cell-based. The conditions noted are these: strain EC; unit printed in b207 only. As for the experimental part:
as §1, §2

The test system of test [3] is E. faecalis OG1RF (ATCC 47077). Nature of the test: Minimum bactericidal concentration (MBC). The conditions noted are these: strain EF; unit printed in b207 only. The format is cell-based. How it is done:
as §1, §2

Test [4] relates to K. pneumoniae (ATCC BAA1705). As to the kind of experiment: Minimum bactericidal concentration (MBC). The conditions noted are these: strain CRKP; unit printed in b207 only. Format: cell-based. As for the experimental part:
as §1, §2

For test [5], the system named is Methicillin-resistant S. aureus (ATCC BAA1717). Nature of the test: Minimum bactericidal concentration (MBC). Format: cell-based. The note with it: strain MRSA; unit printed in b207 only. As for the experimental part: as §1, §2
Test [6] relates to P. aeruginosa (ATCC47085). Nature of the test: Minimum bactericidal concentration (MBC). The conditions noted are these: strain PA (PAO1); unit printed in b207 only. The format is cell-based. How it is done:
as §1, §2

Test [7] concerns MRSA. As to the kind of experiment: Resistance development by serial passaging at 0.5× MIC. The format is cell-based, S. aureus. How it is done: The non-specific action of membrane-active antibiotics lends itself to minimal development of resistance development due to the large metabolic burden involved, unlike traditional antibiotics with a well-defined enzymatic target. Based on this premise, we passaged bacteria incubated with DM6P, or ciprofloxacin (control), at 0.5× MIC to investigate the adaptation of bacteria towards external antibiotic stress. As a control, treatment of MRSA with ciprofloxacin gave rise to antibiotic-resistant mutants within 4 passages, see FIG. 4a. […] Combined with its broad spectrum of activity, this feature opens opportunities for the use of COE antimicrobial agents to address polymicrobial infections with a lower rate of emerging antibiotic resistance.

In test [8] the test system is PAO1. Nature of the test: Propidium iodide influx assay. The format is cell-based, P. aeruginosa. The conditions noted are these: PAO1, 2 to 8 μg mL^−1 (half to twice the MIC). An excerpt: Another hallmark of cytoplasmic membrane damage is an enhanced permeability towards small molecules. Propidium iodide (PI) is a membrane-impermeant organic dye that can be used to study potential mechanisms of action of antibiotics due to its enhanced fluorescence intensity upon binding to intracellular DNA. Treatment with molecules that cause membrane perturbations enable rapid influx of the dye, resulting in an increase in fluorescence emission that can be monitored over time. […] This difference hints at two plausible mechanisms of action that are concentration dependent. Similar observations have been made for tobramycin, where a protein inhibition mode of action at lower concentrations (<4 μg mL^−1) is supplanted by disruption of the outer membrane at higher concentrations (8 μg mL^−1).
The assay was performed according to a modified reported protocol.^4 Briefly, the corresponding bacteria was collected from mid-log cultures by centrifugation (7000 rpm, 10 minutes) and washed thrice with PBS. The pellet was then resuspended in the same buffer and diluted to an optical density of 2 by extrapolation. […] Fluorescence intensity was measured over time in a plate reader with an excitation wavelength of 525 nm and emission wavelength of 620 nm. Fluorescence signals were measured every 30 seconds and carried out in triplicate.

In test [9] the test system is PAO1. As to the kind of experiment: Live-dead staining (SYTO-9/PI) fluorescence microscopy. Format: cell-based, P. aeruginosa. The note with it: PAO1, 16 μg mL^−1 for 30 minutes. How it is done: Membrane damage induced by COE treatment was also confirmed by fluorescence microscopy. A combination of SYTO-9 and PI is commonly employed as a live-dead stain to distinguish cells with permeabilized membranes. […] Combined with PI, the contrast between the colours is employed as a visual indicator of membrane damage. PAO1 cells exposed to 16 μg mL^−1 of DM6P for 30 minutes were subsequently stained with both dyes and imaged directly.
Cell membrane integrity was determined using LIVE/DEAD™ BacLight™ bacterial viability kit L7007 (ThermoFisher, USA) according to the manufacturer's protocol. Bacteria cells were collected from mid-log cultures by centrifugation (7000 rpm, 10 minutes). The media was removed, and the bacteria was washed with PBS twice and diluted to a concentration of about 1×10^7 CFU per mL. […] A mixture of the dyes SYTO-9 and PI dissolved in DMSO were added to the suspension at final concentrations of 5 μM and 30 μM respectively. The bacteria were then incubated in the dark for 15 min. Samples were prepared by aliquoting 5 μl onto a clean glass slide, trapped with an 18 mm coverslip and imaged on an epifluorescence microscope (Leica Thunder Imager).

In test [10] the test system is MRSA. Nature of the test: Transmission electron microscopy of treated cells. Format: cell-based, S. aureus. The note with it: 4 μg mL^−1 for 30 minutes. As for the experimental part: Damage to the bacterial cell membrane was observed by transmission electron microscopy (TEM). S. aureus cells were incubated with DM6P at 4 μg mL^−1 for 30 minutes and fixed immediately to preserve the membrane ultrastructure as close to the point of cell death as possible. […] In FIG. 7d, cytoplasmic membrane separation, which is a key hallmark of plasmolysis was also observed in a cell, presumably in an earlier stage of death prior to leakage of intracellular components. These observations are consistent with micrographs from cells treated by membrane active AMPs Gramicidin S and PGLa. Taken together, these morphological features are in line with the central idea that TPP-COEs induce damage to the cellular membrane, similar to previously studied COEs. Cellular leakage, protein delocalization and inactivation, and small-molecule permeation are downstream observations frequently associated with cell membrane perturbations.
A mid-log culture of MRSA was treated either with DM6P at 4 Ig mL^−1 or PBS (control) and incubated for 30 minutes. Cells were then fixed with 4% glutaraldehyde at 4° C. overnight and collected by centrifugation (7000 rpm, 10 minutes). The cell pellets were post-fixed with 0.2% OsO4, serially dehydrated in a graded ethanol series, and embedded in an epoxy resin. […]

In test [1], `COc1cc(/C=C/c2ccc(OCCCCCC[P+](c3ccccc3)(c3ccccc3)c3ccccc3)c(OC)c2)ccc1OCCCCCC[P+](c1ccccc1)(c1ccccc1)c1ccccc1.[I-].[I-]` [DM6P] showed an IC50 of 11 µg/mL. The MBC against A. baumanii (ATCC 17978) was 32 µg/mL; in [2], 2 µg/mL; in test [3], 4 µg/mL; in test [4], 16 µg/mL; in test [5] it was 2 µg/mL; in test [6] it was 8 µg/mL. The resistance development entry with MRSA [7] is given as “did not induce any observable resistant mutants”. The PI influx result in the test on PAO1 [8] is recorded as “increase in PI influx appeared to be independent of concentration”. For the same molecule, in the test on PAO1 [9], the “PI staining in live-dead stain” value is reported as “clear staining by PI”. For the same molecule, the “membrane damage by TEM” value in the test on MRSA [10] is “visible cellular shrinkage and membrane disintegration”.
